This test concerns c-Myc duplex (18 bp, d(AGGGTGGGG)2:d(CCCCACCCT)2) (DNA, duplex) AGGGTGGGGAGGGTGGGG/CCCCACCCTCCCCACCCT
In words: UV absorption titration, Scatchard. The note with it: 137 mM Na+ (NaCl), 5.4 mM K+ (KCl), 1.3 mM Ca2+, 1 mM Mg2+; Hanks' buffer, pH 7.2, 20 °C; single type of site; per site.

Each structure is given as a SMILES string.

On to `O=C1NC(=O)c2c1c1c3ccccc3[nH]c1c1c2c2ccccc2n1[C@@H]1OC[C@H](O)[C@H](O)[C@H]1O`, for which the K1 is given as 0.8 ± 0.1 × 10^6 M^-1.

Source of the values: paper PMC3136114 (2011).
